Experimental data reported in ChEMBL document CHEMBL3804794, “Design, synthesis and biological evaluation of pyrazol-furan carboxamide analogues as novel Akt kinase inhibitors” (Eur J Med Chem, 2016).

Legend:
[1] = target: T1, RAC-alpha serine/threonine-protein kinase (Homo sapiens, UniProt P31749); test: Inhibition of Akt1 (unknown origin) expressed in Escherichia coli using peptide substrate after 1 hr by HTRF assay
[2] = Antiproliferative activity against human OVCAR8 cells after 72 hrs by SRB assay; type: functional, cell-based; conditions: OVCAR-8, 72 h
[3] = Antiproliferative activity against human HCT116 cells after 72 hrs by SRB assay; type: functional, cell-based; conditions: HCT-116, 72 h
[4] = Inhibition of Akt in human PTEN-null LNCAP cells assessed as suppression in PRAS40 phosphorylation after 1 hr by ELISA analysis; type: cell-based
[5] = target: T1, RAC-alpha serine/threonine-protein kinase; test: Inhibition of Akt1 (unknown origin) expressed in Escherichia coli at 1 ug/ml using peptide substrate after 1 hr by HTRF assay
[6] = Effect on total GSK3beta levels in human PC3 cells at 1 to 10 uM after 3 hrs by western blot analysis; type: ADME, cell-based; conditions: pc-3, 3 h
[7] = Effect on total Akt levels in human PC3 cells at 1 to 10 uM after 3 hrs by western blot analysis; type: ADME, cell-based; conditions: pc-3, 3 h
[8] = Effect on total GAPDH levels in human PC3 cells at 1 to 10 uM after 3 hrs by western blot analysis; type: ADME, cell-based; conditions: pc-3, 3 h
[9] = Inhibition of PKA (unknown origin) after 60 mins by Z-LYTE kinase assay; set-up: species or system Homo sapiens
[10] = target: T2, Testis-specific serine/threonine-protein kinase 1 (Mus musculus, UniProt Q61241); test: Inhibition of mouse TSSK1 by luminescent ADP-Glo assay kit
T2 sequence (Q61241 whole entry): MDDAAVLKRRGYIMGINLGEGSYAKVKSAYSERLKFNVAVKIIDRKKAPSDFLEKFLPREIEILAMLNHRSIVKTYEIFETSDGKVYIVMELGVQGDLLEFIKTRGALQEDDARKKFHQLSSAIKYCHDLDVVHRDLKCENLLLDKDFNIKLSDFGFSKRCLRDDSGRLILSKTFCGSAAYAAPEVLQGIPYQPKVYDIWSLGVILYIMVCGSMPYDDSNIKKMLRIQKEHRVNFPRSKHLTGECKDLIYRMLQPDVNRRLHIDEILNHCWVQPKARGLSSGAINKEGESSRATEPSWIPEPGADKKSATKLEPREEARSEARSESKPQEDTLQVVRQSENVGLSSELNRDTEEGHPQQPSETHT

T1 sequence (P31749 whole entry): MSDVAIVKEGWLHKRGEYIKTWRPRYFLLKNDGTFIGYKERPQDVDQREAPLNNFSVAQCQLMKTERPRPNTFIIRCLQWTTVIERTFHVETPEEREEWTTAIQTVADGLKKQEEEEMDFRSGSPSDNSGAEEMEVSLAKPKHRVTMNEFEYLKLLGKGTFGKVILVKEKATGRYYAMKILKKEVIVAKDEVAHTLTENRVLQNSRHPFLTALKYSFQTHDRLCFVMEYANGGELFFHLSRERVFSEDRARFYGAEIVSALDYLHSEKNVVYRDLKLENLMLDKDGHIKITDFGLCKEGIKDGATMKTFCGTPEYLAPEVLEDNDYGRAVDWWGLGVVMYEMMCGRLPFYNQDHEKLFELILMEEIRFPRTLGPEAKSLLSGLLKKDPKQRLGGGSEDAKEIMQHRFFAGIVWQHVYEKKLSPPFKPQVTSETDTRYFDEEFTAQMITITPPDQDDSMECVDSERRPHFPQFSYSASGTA

Row | Compound | IC50 [1] [µM] | IC50 [2] [µM] | IC50 [3] [µM] | other results
1 | Cn1ncc(Cl)c1-c1c(Cl)c(C(=O)NC2(c3ccc(Cl)c(Cl)c3)CCNCC2)n(C)c1Cl | 0.85 | 1.77 | 9.28 | 
2 | Cn1ncc(Br)c1-c1coc(C(=O)NC2(c3ccc(F)cc3)CCNCC2)c1 | 2.02 | 20.1 | 18.1 | 
3 | Cn1ncc(Cl)c1-c1oc(C(=O)NC2(c3ccc(Cl)c(Cl)c3)CCNCC2)cc1Br | 1.48 | 5.95 | 6.97 | 
4 | NC1(C(=O)N[C@@H](CCO)c2ccc(Cl)cc2)CCN(c2nc[nH]c3nccc2-3)CC1 [CAPIVASERTIB] |  | 7.27 | 5.2 | IC50 [4]: 0.337 µM
5 | Cn1nccc1-c1oc(C(=O)NC2(c3ccc(Cl)c(Cl)c3)CCNCC2)cc1Br |  | 6.87 | 24.8 | inhibition [5]: 49.4%
6 | Cn1nccc1-c1csc(C(=O)NC2(c3ccc(Cl)c(Cl)c3)CCNCC2)c1 | 0.071 | 1.61 | 3.92 | 
7 | Cn1ncc(Cl)c1-c1cc(C(=O)NC2(c3ccc(Cl)c(Cl)c3)CCNCC2)oc1Cl | 0.061 | 9.76 | 7.76 | Activity [6]: Non-toxic; Activity [7]: Non-toxic; IC50 [4]: 0.0304 µM; Activity [8]: Non-toxic
8 | Cn1ncc(Br)c1-c1coc(C(=O)NC2(c3ccc(Cl)c(Cl)c3)CCNCC2)c1 | 0.44 | 3.77 | 4 | 
9 | Cn1ncc(Br)c1-c1oc(C(=O)NC2(c3ccc(Cl)c(Cl)c3)CCNCC2)cc1Br |  | 5.81 | 16.4 | inhibition [5]: 43.5%
10 | Cn1ncc(Cl)c1-c1cc(C(=O)NC2(c3ccc(F)cc3)CCNCC2)oc1Cl | 0.39 | 4.81 | 6.47 | 
11 | Cn1cc(-c2c(Br)cnn2C)cc1C(=O)NC1(c2ccc(Cl)c(Cl)c2)CCNCC1 | 1.26 | 2.83 | 12.9 | 
12 | Cn1ncc(Br)c1-c1cc(C(=O)NC2(c3ccc(Cl)c(Cl)c3)CCNCC2)n(C)c1Br |  | 4.7 | 7.75 | inhibition [5]: 30.3%
13 | Cn1ncc(Br)c1-c1ccc(C(=O)NC2(c3ccc(Cl)c(Cl)c3)CCNCC2)cc1 | 1.4 | 1.96 | 11 | 
14 | Cn1nccc1-c1csc(C(=O)NC2(c3ccc(F)cc3)CCNCC2)c1 | 0.92 | 14.3 | 24.8 | 
15 | Cn1ncc(Cl)c1-c1cc(C(=O)N[C@H](CN)Cc2ccc(F)c(F)c2)oc1Cl [UPROSERTIB] |  |  |  | IC50 [4]: 0.0756 µM
16 | Cn1ncc(Cl)c1-c1csc(C(=O)NC2(c3ccc(F)cc3)CCNCC2)c1 | 0.32 | 8.19 | 18.3 | 
17 | Cn1ncc(Cl)c1-c1coc(C(=O)NC2(c3ccc(F)cc3)CCNCC2)c1 | 0.92 | 6.46 | 10.1 | 
18 | CN[C@@H]1C[C@H]2O[C@@](C)([C@@H]1OC)n1c3ccccc3c3c4c(c5c6ccccc6n2c5c31)C(=O)NC4 [STAUROSPORINE] |  |  |  | IC50 [9]: 0.0082 µM; IC50 [10]: 0.00033 µM
19 | Cn1ncc(Br)c1-c1csc(C(=O)NC2(c3ccc(F)cc3)CCNCC2)c1 | 0.36 | 7.78 | 17.5 | 
20 | Cn1ncc(Cl)c1-c1ccc(C(=O)NC2(c3ccc(Cl)c(Cl)c3)CCNCC2)cc1 | 1.91 | 5.21 | 11.9 | 
